# Source: US20070123551A1, “Use of metabotropic glutamarate receptor 5 (mglur5) antagonists for the treatment of gastrointestinal disorders” (priority 2003, published 2007)
# Test system: WKY rats
# Assay: in vivo gastric distension model (barostat, ramp and tonic distension) in conscious WKY rats
# Set-up: species or system Wistar Kyoto rats
# Excerpt: An in vivo gastric distension model is used as a model for functional gastrointestinal disorders, in particular for functional dyspepsia (Bayati A, Astin M, Ekman C, Mattsson H. Wistar Kyoto rats have impaired gastric adaptive accommodation in response to gastric distension. Gastroenterology 2003; 124 (4, suppl 1): W1471 (abstract)).
# The gastric distension model enables detailed analysis of the physico-mechanical properties of the stomach, e.g. basal gastric tone, threshold for accommodation, accommodation rate, accommodation volume, and maximal gastric volume. […] Furthermore, it has been shown that patients with Functional Dyspepsia as well as Wistar Kyoto (WKY) rats have an impaired gastric adaptive response and also a lower total gastric volume as compared to healthy subjects and Sprague Dawley (SD) rats, respectively. In addition, the method has shown to be reproducible and reliable. Moreover, the advantage of the presently used barostat technique compared to other barostat techniques normally used in experimental clinical studies is that it is possible to discriminate between if a compound exerts its effect directly on gastric smooth muscles or if the effect involves the vagal reflex mechanism.
# The rats are equipped with fistulas chronically implanted into the stomach. During gastric barostat experiments, a small inflatable plastic bag with a spherical shape is inserted through fistula into the glandular part of the stomach (middle to distal part in the rat). The experiments are performed in conscious rats. For detailed analysis of the physico-mechanical properties of the stomach, a combination of ramp and tonic distension paradigm is used. Pressure and volume data collected during experiments are saved for and further analysis.
# In order to determine an animal's maximum gastric accommodation capacity, a balloon is inserted into the stomach of the animal and a four phase protocol which includes a start phase, a ramp phase, a tonic phase and an end phase is performed. A barostat system maintains the pressure by pumping air into and out of the balloon. The pressure applied to the balloon and the corresponding changes to the volume of the balloon are monitored throughout, e.g., using any barostat system known in the art (e.g., see Toma et al, Neurogastroenterol. Mot., 8, 19-28, 1996).
# During the start phase a minimum distension pressure, e.g., 1 mmHg, is applied to the balloon until base line values are obtained. This is followed by a Ramp Phase. During this phase the pressure applied to the balloon is increased linearly with a constant increase in pressure to a preset maximum value. This second phase is then followed by the Tonic Phase at which the preset maximum pressure is kept constant. Finally, the pressure is rapidly dropped to the starting minimum distension pressure and this period is known as the End Phase.
# To determine if an agent, e.g., a compound is useful in the treatment of FD, the maximum gastric accommodation rate in the WKY rat following administration of the compound is calculated. A compound of interest will be a compound that alters the maximum gastric accommodation rate in the animal and this is calculated by determining a difference in the maximum gastric accommodation rate before and after administration of the compound.
# The Wistar Kyoto rats (WKY; M&B Denmark) are starved about 6 or 18 hours before each experiment depending on if the experiments are performed in the morning or in the afternoon. […]
# [1] = 10 μmol/kg intravenously 3-5 min before start of ramp phase, compared to the control situation, FIG. 1
smiles,measurement,setting,value
"Cc1cccc(C#Cc2ccccc2)n1 [MPEP, 2-methyl-6-(phenylethynyl)-pyridine]",gastric volume during the ramp phase,[1],increase
same,gastric volume during the tonic phase,[1],increase
same,accommodation rate (the slope of volume curve during the tonic phase),"10 μmol/kg intravenously, FIG. 1",increased
same,maximum gastric volume,"10 μmol/kg intravenously, compared to the control situation, FIG. 1",increased
same,accommodation capacity,"10 μmol/kg intravenously, conclusion",increases
